How the values were obtained:
[1] = Inhibition of Talaromyces flavus beta-N-acetylhexosaminidase GH20 using p-nitrophenyl 2-acetamido-2-deoxy-beta-D-glucosaminide substrate at pH 7.0 and 25 degC
[2] = Inhibition of Bacteroides thetaiotaomicron beta-N-acetylglucosaminidase GH84 using p-nitrophenyl 2-acetamido-2-deoxy-beta-D-glucosaminide substrate at pH 7.0 and 25 degC
[3] = Inhibition of Streptomyces plicatus beta-N-acetylhexosaminidase GH20 using p-nitrophenyl 2-acetamido-2-deoxy-beta-D-glucosaminide substrate at pH 7.0 and 25 degC

| Ki [1] | Ki [2] | Ki [3] | Compound |
| --- | --- | --- | --- |
| 42.7 µM | 0.029 µM | 24 µM | CC1=N[C@@H]2[C@@H](O)[C@H](O)[C@@H](CO)O[C@@H]2S1 |
| 1890 µM | 1830 µM | 9900 µM | CC1=N[C@H]2[C@H](O[C@H](CO)C[C@@H]2O)S1 |
| 393 µM | – | 90.8 µM | CC1=N[C@@H]2[C@@H](O)[C@@H](O)[C@@H](CO)O[C@@H]2S1 |

From ChEMBL document CHEMBL3352058, “Inhibition of microbial β-N-acetylhexosaminidases by 4-deoxy- and galacto-analogues of NAG-thiazoline” (Bioorg Med Chem Lett, 2014)
